Square brackets hold non-standard residues; d marks the D form. Ends that are not written are not given here. * marks the point of attachment. Dnp = O=[N+]([O-])c1ccc(*)c([N+](=O)[O-])c1; 2Abz = Nc1ccccc1C(=O)O
Legend:
[1] = molecular target: S2-nACE (Y369F and R381E) (Homo sapiens, UniProt P12821, R410E/Y398F); assay: Inhibitor binding kinetics, modified Abz-FRK(Dnp)P-OH assay, S2 mutant; format: biochemical; design: The truncated (single domain) wild-type N-domain (nACE), N-domain mutant constructs; made in house; host or cells: CHO-K1; conditions: for Selectivity (Ki cACE/Ki nACE or mutant): Ki cACE / Ki S2-nACE; for decrease in binding affinity compared with nACE: S2-nACE relative to nACE; for Ki: S2-nACE, Morrison plot, 50 mM HEPES pH 6.8, 200 mM NaCl, 10 μM ZnCl2, mean ± SD
Protocol: (§1) Serial dilutions of an appropriate range were prepared for each inhibitor in the aforementioned assay buffer. An appropriate concentration of enzyme was similarly prepared and incubated with an equal volume of inhibitor for 15 min at 22°C after which 20 μl volumes of the reactions were aliquoted to a 96-well plate. […] Control (zero inhibitor) reactions containing the appropriate concentration of methanol or DMSO (in the case of ketoACE-13 or omapatrilat, respectively) were included to correct for any possible vehicle-induced effects on the reaction rate.

[2] = molecular target: S′-nACE (S260T, E262S, D354E, S357V, T358V and E431D) (Homo sapiens, UniProt P12821, D383E/E291S/E460D/S289T/S386V/T387V); assay: Inhibitor binding kinetics, modified Abz-FRK(Dnp)P-OH assay, S′ mutant; format: biochemical; conditions: for Selectivity (Ki cACE/Ki nACE or mutant): Ki cACE / Ki S′-nACE; for decrease in binding affinity compared with nACE: S′-nACE relative to nACE; for Ki: S′-nACE, Morrison plot, 50 mM HEPES pH 6.8, 200 mM NaCl, 10 μM ZnCl2, mean ± SD
Protocol: as §1

nACE [3] = molecular target: nACE (Homo sapiens, UniProt P12821); assay: Inhibitor binding kinetics, modified Abz-FRK(Dnp)P-OH assay, wild-type N-domain; format: biochemical; design: The truncated (single domain) wild-type N-domain (nACE); made in house; host or cells: CHO-K1; conditions: nACE; Morrison plot; 50 mM HEPES pH 6.8, 200 mM NaCl, 10 μM ZnCl2; mean ± SD
Protocol: as §1

nACE [4] = assay: as above; format: biochemical; conditions: Ki cACE / Ki nACE (N-selectivity)
Protocol: as §1

[5] = molecular target: S2_S′-nACE (S260T, E262S, D354E, S357V, T358V, Y369F, R381E and E431D) (Homo sapiens, UniProt P12821, D383E/E291S/E460D/R410E/S289T/S386V/T387V/Y398F); assay: Inhibitor binding kinetics, modified Abz-FRK(Dnp)P-OH assay, combined S2_S′ mutant; format: biochemical; design: The truncated (single domain) wild-type N-domain (nACE), N-domain mutant constructs; made in house; host or cells: CHO-K1; conditions: for Selectivity (Ki cACE/Ki nACE or mutant): Ki cACE / Ki S2_S′-nACE; for decrease in binding affinity compared with nACE: S2_S′-nACE relative to nACE; for Ki: S2_S′-nACE, Morrison plot, 50 mM HEPES pH 6.8, 200 mM NaCl, 10 μM ZnCl2, mean ± SD; for binding affinity lower than that of cACE: S2_S′-nACE relative to cACE
Protocol: as §1

cACE = cACE (Homo sapiens, UniProt P12821); assay: Inhibitor binding kinetics, modified Abz-FRK(Dnp)P-OH assay, wild-type C-domain; format: biochemical; conditions: for Ki: cACE, Morrison plot, 50 mM HEPES pH 6.8, 200 mM NaCl, 10 μM ZnCl2, mean ± SD
Protocol: as §1

[6] = Integrity of omapatrilat at ambient temperature monitored by HPLC (dimer formation); format: physicochemical
Protocol: The fluorogenic substrate Abz-FRK(Dnp)P-OH was a kind gift from Prof A.K. Carmona, Universidade Federal de São Paulo. The peptide was dissolved in 100% DMSO and the concentration determined by measuring the absorbance at 365 nm and extinction coefficient of 17 300 M^−1 cm^−1. Subsequent dilutions from the 1 mM stock of were made in assay buffer (50 mM HEPES, pH 6.8, 10 μM ZnCl2, 200 mM NaCl). […] KetoACE-13 was dissolved in 100% methanol to a stock concentration of 50 mM, followed by dilution in deionized distilled water to 10 mM. Since the dimerization of omapatrilat has been previously described, fresh 10 mM stocks of inhibitor were prepared in DMSO directly prior to kinetic analysis. The integrity of omapatrilat at ambient temperature was monitored at 50 µM by HPLC (Agilent 1260 Infinity HPLC System with a Poroshell 120 EC-C 18 column) over the timeframe of each assay, as previously described. A 20 µl injection volume was used with a 0.5 ml/min flow rate with A: 1% ACN, 0.1% TFA; B: 95% ACN, 0.1% TFA; and 0–100% B over 10 min; 214 nm.
Figure 2 . Effect of mutation on N-selective inhibition, integrity of omapatrilat at ambient temperature as monitored by HPLC and SDS–PAGE gel illustrating the decreased molecular mass of the active site mutant N389-S2_S′-nACE. (A) Inhibitor binding affinities (Ki values) for wild-type cACE or nACE mutants are shown on a log scale relative to nACE with error bars representing mean ± SD of at least two independent experiments. (B) Omapatrilat (50 μM in assay buffer) was analyzed using a Poroshell 120 EC-C 18 column on the Agilent 1260 infinity HPLC system. Twenty microliters of the sample was injected onto the column immediately after preparation or following incubation at ambient temperature for 1, 2 or 3 h. Conditions: A: 1% ACN, 0.1% TFA; B: 95% ACN, 0.1% TFA; 0–100% B over 10 min; 0.5 ml/min, 214 nm. […] (C) SDS–PAGE of purified nACE proteins (1) fully glycosylated S2_S′-nACE, (2) minimally glycosylated N389-nACE and (3) minimally glycosylated N389-S2_S′-nACE.

[7] = molecular target: S′-nACE (N-domain mutant S260T, E262S, D354E, S357V, T358V and E431D)
[8] = molecular target: S2_S′-nACE (N-domain mutant S260T, E262S, D354E, S357V, T358V, Y369F, R381E and E431D)
[9] = molecular target: S2-nACE (N-domain mutant Y369F and R381E)
[10] = molecular target: Wild-type C-domain of angiotensin-converting enzyme (cACE)
[11] = molecular target: Wild-type N-domain of angiotensin-converting enzyme (nACE)

Sequence of nACE (Homo sapiens, UniProt P12821) (P12821 40-624 limits assumed): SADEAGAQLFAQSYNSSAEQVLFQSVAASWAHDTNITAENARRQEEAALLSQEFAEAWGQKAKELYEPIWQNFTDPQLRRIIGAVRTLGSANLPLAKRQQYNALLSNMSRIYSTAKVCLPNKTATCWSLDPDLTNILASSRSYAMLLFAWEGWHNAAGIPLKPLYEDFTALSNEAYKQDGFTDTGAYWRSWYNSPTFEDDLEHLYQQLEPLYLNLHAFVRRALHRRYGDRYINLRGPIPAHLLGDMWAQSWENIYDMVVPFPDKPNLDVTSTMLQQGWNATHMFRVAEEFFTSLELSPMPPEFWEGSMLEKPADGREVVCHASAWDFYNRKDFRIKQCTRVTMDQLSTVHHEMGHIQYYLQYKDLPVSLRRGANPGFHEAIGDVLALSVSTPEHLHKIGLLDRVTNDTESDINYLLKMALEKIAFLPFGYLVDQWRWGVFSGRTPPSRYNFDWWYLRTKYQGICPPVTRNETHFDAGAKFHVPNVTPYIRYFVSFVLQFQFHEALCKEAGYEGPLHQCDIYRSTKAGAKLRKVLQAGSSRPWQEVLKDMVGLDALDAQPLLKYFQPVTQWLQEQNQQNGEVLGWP
Sequence of S′-nACE (S260T, E262S, D354E, S357V, T358V and E431D) (P12821 40-624 S289T/E291S/D383E/S386V/T387V/E460D): as the sequence (P12821 40-624 limits assumed) above, with S250T, E252S, D344E, S347V, T348V, E421D counted along it
Sequence of S2-nACE (Y369F and R381E) (P12821 40-624 Y398F/R410E): as the sequence (P12821 40-624 limits assumed) above, with Y359F, R371E counted along it
Sequence of S2_S′-nACE (S260T, E262S, D354E, S357V, T358V, Y369F, R381E and E431D) (P12821 40-624 S289T/E291S/D383E/S386V/T387V/Y398F/R410E/E460D): as the sequence (P12821 40-624 limits assumed) above, with S250T, E252S, D344E, S347V, T348V, Y359F, R371E, E421D counted along it
Sequence of cACE (P12821 643-1222 limits assumed): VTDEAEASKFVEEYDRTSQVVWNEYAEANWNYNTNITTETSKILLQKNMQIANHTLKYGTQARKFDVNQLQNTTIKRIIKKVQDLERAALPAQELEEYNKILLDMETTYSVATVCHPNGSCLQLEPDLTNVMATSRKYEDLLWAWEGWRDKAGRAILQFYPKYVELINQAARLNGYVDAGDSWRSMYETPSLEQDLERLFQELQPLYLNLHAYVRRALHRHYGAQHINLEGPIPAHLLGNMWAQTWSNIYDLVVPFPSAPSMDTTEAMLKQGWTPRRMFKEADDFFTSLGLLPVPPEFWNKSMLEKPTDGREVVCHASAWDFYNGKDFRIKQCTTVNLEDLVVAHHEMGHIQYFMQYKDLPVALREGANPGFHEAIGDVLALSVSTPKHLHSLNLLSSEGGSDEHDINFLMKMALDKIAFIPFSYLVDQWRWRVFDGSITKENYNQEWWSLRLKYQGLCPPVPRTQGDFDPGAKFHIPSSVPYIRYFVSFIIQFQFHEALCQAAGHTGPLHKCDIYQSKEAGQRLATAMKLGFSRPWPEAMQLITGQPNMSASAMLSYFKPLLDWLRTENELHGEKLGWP

CC(NC(C(=O)O)C1CCCN1C(=O)C(N)CC(=O)O)C(=O)N1CCCC1C(=O)O (stereo not drawn) [SG6]
Selectivity (Ki cACE/Ki nACE or mutant) [1]: 1.7
decrease in binding affinity compared with nACE [1]: 474 fold
Ki [1]: 44 ± 2.8 nM
Selectivity (Ki cACE/Ki nACE or mutant) [2]: 70
decrease in binding affinity compared with nACE [2]: 11 fold
Ki [2]: 1.09 ± 0.1 nM
Ki (nACE [3]): 0.093 ± 0.02 nM
Selectivity (Ki cACE/Ki nACE or mutant) (nACE [4]): 825
Selectivity (Ki cACE/Ki nACE or mutant) [5]: 1.1
decrease in binding affinity compared with nACE [5]: 784 fold
Ki [5]: 72.9 ± 7.5 nM
Selectivity (Ki cACE/Ki nACE or mutant) (cACE): 1
Ki (cACE): 76.8 ± 4.3 nM

C[C@H](N[C@@H](CCc1ccccc1)C(=O)O)C(=O)N1CCC[C@H]1C(=O)O [Enalaprilat, enalaprilat, reference compound]
decrease in binding affinity compared with nACE [1]: 2 fold
decrease in binding affinity compared with nACE [2]: 2.5 fold
binding affinity lower than that of cACE [5]: 19 fold
decrease in binding affinity compared with nACE [5]: 4 fold
greater affinity to cACE than nACE (cACE; cACE relative to nACE): 5 fold

O=C(N[C@H]1CCS[C@H]2CCC[C@@H](C(=O)O)N2C1=O)[C@@H](S)Cc1ccccc1 [Omapatrilat, omapatrilat, reference compound]
Selectivity (Ki cACE/Ki nACE or mutant) [1]: 2
Ki [1]: 0.43 ± 0.13 nM
Selectivity (Ki cACE/Ki nACE or mutant) [2]: 1
Ki [2]: 0.49 ± 0.04 nM
Ki (nACE [3]): 0.37 ± 0.05 nM
Selectivity (Ki cACE/Ki nACE or mutant) (nACE [4]): 2
Selectivity (Ki cACE/Ki nACE or mutant) [5]: 2
Ki [5]: 0.29 ± 0.01 nM
fraction of dimer detected ([6]; 50 μM in assay buffer (50 mM HEPES pH 6.8), immediately after solubilization): 2.56%
increase in fraction of dimer ([6]; 50 μM in assay buffer, after 1 h at ambient temperature): 0.86%
fraction of dimer detected ([6]; 50 μM in assay buffer, after 3 h of incubation at ambient temperature): 11%
Selectivity (Ki cACE/Ki nACE or mutant) (cACE): 1
Ki (cACE): 0.7 ± 0.09 nM

CC(C)(C)OC(=O)NC(CC(=O)O)C(=O)NC(Cc1ccccc1)C(=O)CCC(=O)N1CCCC1C(=O)O (stereo not drawn) [KetoACE13]
Selectivity (Ki cACE/Ki nACE or mutant) [1]: 0.5
Ki [1]: 17800 nM
Selectivity (Ki cACE/Ki nACE or mutant) [2]: 3
decrease in binding affinity compared with nACE [2]: 3 fold
Ki [2]: 2990 ± 1000 nM
Ki (nACE [3]): 1000 ± 270 nM
Selectivity (Ki cACE/Ki nACE or mutant) (nACE [4]): 8
Selectivity (Ki cACE/Ki nACE or mutant) [5]: 0.2
binding affinity lower than that of cACE [5]: 6 fold
Ki [5]: 47800 nM
Selectivity (Ki cACE/Ki nACE or mutant) (cACE): 1
Ki (cACE): 8250 ± 430 nM

B1: Abz-FRK(Dnp)P-OH (peptide)
peptide: [2Abz]FRK(Dnp)P-OH
modifications: N-terminus assumed
SMILES: N=C(N)NCCC[C@H](NC(=O)[C@H](Cc1ccccc1)NC(=O)c1ccccc1N)C(=O)N[C@@H](CCCCNc1ccc([N+](=O)[O-])cc1[N+](=O)[O-])C(=O)N1CCC[C@H]1C(=O)O
Km of Abz-FRK(Dnp)P-OH hydrolysis (Michaelis-Menten model, initial velocities; 50 mM HEPES pH 6.8, 200 mM NaCl, 10 µM ZnCl2, ambient temperature) [7]: 4.51 μM
Km of Abz-FRK(Dnp)P-OH hydrolysis (Michaelis-Menten model, initial velocities; 50 mM HEPES pH 6.8, 200 mM NaCl, 10 µM ZnCl2, ambient temperature) [8]: 12.4 μM
Km of Abz-FRK(Dnp)P-OH hydrolysis (Michaelis-Menten model, initial velocities; 50 mM HEPES pH 6.8, 200 mM NaCl, 10 µM ZnCl2, ambient temperature) [9]: 11.9 μM
Km of Abz-FRK(Dnp)P-OH hydrolysis (Michaelis-Menten model, initial velocities; 50 mM HEPES pH 6.8, 200 mM NaCl, 10 µM ZnCl2, ambient temperature) [10]: 6.3 μM
Km of Abz-FRK(Dnp)P-OH hydrolysis (Michaelis-Menten model, initial velocities; 50 mM HEPES pH 6.8, 200 mM NaCl, 10 µM ZnCl2, ambient temperature) [11]: 7.54 μM

— paper PMC7148434, “ACE-domain selectivity extends beyond direct interacting residues at the active site” (Biochemical Journal, 2020)
